Measurements published in patent publication US12077503B2, “Substituted cyclic amides and their use as herbicides” (FMC CORPORATION, priority 2015, dated 2024).
Where two headings read alike, the source gives them in different places.

What was measured:
Format in all cases: in vivo
[1] = system: barnyardgrass (Echinochloa crus-galli); assay: Test A preemergence; settings: Echinochloa crus-galli, pre-emergence, 240 h; for pest or weed control at 125 g/ha: 125 g ai/ha, Preemergence, visual injury rating after approximately 10 d, read-out: Barnyardgrass plant response rating (0 to 100 scale, 0 is no effect, 100 is complete control); for pest or weed control at 500 g/ha: 500 g ai/ha, preemergence, visual injury rating about 10 d after treatment, 0 to 100 scale (0 no effect, 100 complete control), read-out: Barnyardgrass plant response rating
How it was run: (§1)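 Seeds sprayed preemergence with a directed soil spray, or plants at 2 to 10 cm height and one- to two-leaf stage sprayed postemergence, with test chemicals in a non-phytotoxic solvent mixture containing surfactant, in loam soil–sand blend. Injury rated visually against untreated controls after about 10 d in greenhouse, 0 (no effect) to 100 (complete control).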

[2] = system: giant foxtail (Setaria faberii); assay: Test A preemergence; settings: Setaria faberi, pre-emergence, 240 h; for pest or weed control at 125 g/ha: 125 g ai/ha, Preemergence, visual injury rating after approximately 10 d, read-out: Foxtail, Giant plant response rating (0 to 100 scale, 0 is no effect, 100 is complete control); for pest or weed control at 500 g/ha: 500 g ai/ha, preemergence, visual injury rating about 10 d after treatment, 0 to 100 scale (0 no effect, 100 complete control), read-out: Foxtail, Giant plant response rating
How it was run: as §1

[3] = system: ryegrass, Italian (Italian ryegrass, Lolium multiflorum); assay: Test A preemergence; settings: Lolium multiflorum, pre-emergence, 240 h; for pest or weed control at 125 g/ha: 125 g ai/ha, Preemergence, visual injury rating after approximately 10 d, read-out: Ryegrass, Italian plant response rating (0 to 100 scale, 0 is no effect, 100 is complete control); for pest or weed control at 500 g/ha: 500 g ai/ha, preemergence, visual injury rating about 10 d after treatment, 0 to 100 scale (0 no effect, 100 complete control), read-out: Ryegrass, Italian plant response rating
How it was run: as §1

Kochia (Kochia scoparia) [4] = assay: Test A preemergence; settings: Bassia scoparia, pre-emergence, 240 h; for pest or weed control at 125 g/ha: 125 g ai/ha, Preemergence, visual injury rating after approximately 10 d, read-out: Kochia plant response rating (0 to 100 scale, 0 is no effect, 100 is complete control); for pest or weed control at 500 g/ha: 500 g ai/ha, preemergence, visual injury rating about 10 d after treatment, 0 to 100 scale (0 no effect, 100 complete control), read-out: Kochia plant response rating
How it was run: as §1

[5] = system: ragweed (common ragweed, Ambrosia elatior); assay: Test A preemergence; settings: Ambrosia artemisiifolia, pre-emergence, 240 h; for pest or weed control at 125 g/ha: 125 g ai/ha, Preemergence, visual injury rating after approximately 10 d, read-out: Ragweed plant response rating (0 to 100 scale, 0 is no effect, 100 is complete control); for pest or weed control at 500 g/ha: 500 g ai/ha, preemergence, visual injury rating about 10 d after treatment, 0 to 100 scale (0 no effect, 100 complete control), read-out: Ragweed plant response rating
How it was run: as §1

[6] = system: pigweed (Amaranthus retroflexus); assay: Test A preemergence; settings: Amaranthus retroflexus, pre-emergence, 240 h; for pest or weed control at 125 g/ha: 125 g ai/ha, Preemergence, visual injury rating after approximately 10 d, read-out: Pigweed plant response rating (0 to 100 scale, 0 is no effect, 100 is complete control); for pest or weed control at 500 g/ha: 500 g ai/ha, preemergence, visual injury rating about 10 d after treatment, 0 to 100 scale (0 no effect, 100 complete control), read-out: Pigweed plant response rating
[7] = system: blackgrass (Alopecurus myosuroides); assay: Test A postemergence; settings: Alopecurus myosuroides, post-emergence, 240 h, 125 g ai/ha, Postemergence; visual injury after approximately 10 d; 0 to 100 scale where 0 is no effect and 100 is complete control; read-out: Plant response rating, Blackgrass
How it was run: as §1

corn (Zea mays) = assay: Test A postemergence; settings: Zea mays, post-emergence, 240 h; for Corn plant response rating (crop injury, 0 = no effect, 100 = complete kill) at 125 g/ha: Postemergence, visual injury after approximately 10 d, 0 to 100 scale where 0 is no effect and 100 is complete control
How it was run: as §1

[8] = system: barnyardgrass (Echinochloa crus-galli); assay: Test A postemergence; settings: Echinochloa crus-galli, post-emergence, 240 h; for pest or weed control at 125 g/ha: 125 g ai/ha
How it was run: as §1

[9] = system: ryegrass, Italian (Italian ryegrass, Lolium multiflorum); assay: Test A postemergence; settings: Lolium multiflorum, post-emergence, 240 h, 125 g ai/ha
How it was run: as §1

[10] = system: wheat (Triticum aestivum); assay: Test A postemergence; settings: Triticum aestivum, post-emergence, 240 h, 125 g ai/ha
How it was run: as §1

Kochia (Kochia scoparia) [11] = assay: Test A postemergence; settings: Bassia scoparia, post-emergence, 240 h; for pest or weed control at 125 g/ha: 125 g ai/ha
How it was run: as §1

[12] = system: ragweed (common ragweed, Ambrosia elatior); assay: Test A postemergence; settings: Ambrosia artemisiifolia, post-emergence, 240 h, 125 g ai/ha
How it was run: as §1

[13] = system: pigweed (Amaranthus retroflexus); assay: Test A postemergence; settings: Amaranthus retroflexus, post-emergence, 240 h, 125 g ai/ha
How it was run: as §1

[14] = system: Galium (catchweed bedstraw, Galium aparine); assay: Test A postemergence; settings: Galium, post-emergence, 240 h; for pest or weed control at 125 g/ha: 125 g ai/ha
How it was run: as §1

[15] = Postemergence, visual injury after approximately 10 d, 0 to 100 scale where 0 is no effect and 100 is complete control, read-out: Plant response rating, Ryegrass, Italian
[16] = Postemergence, visual injury after approximately 10 d, 0 to 100 scale where 0 is no effect and 100 is complete control, read-out: Plant response rating, Wheat
[17] = Postemergence, visual injury after approximately 10 d, 0 to 100 scale where 0 is no effect and 100 is complete control, read-out: Plant response rating, Kochia
[18] = Postemergence, visual injury after approximately 10 d, 0 to 100 scale where 0 is no effect and 100 is complete control, read-out: Plant response rating, Ragweed
[19] = Postemergence, visual injury after approximately 10 d, 0 to 100 scale where 0 is no effect and 100 is complete control, read-out: Plant response rating, Pigweed
[20] = Postemergence, visual injury after approximately 10 d, 0 to 100 scale where 0 is no effect and 100 is complete control, read-out: Plant response rating, Galium

Row | Structure (SMILES) | pest or weed control at 125 g/ha [1] [%] | pest or weed control at 500 g/ha [1] [%] | pest or weed control at 125 g/ha [2] [%] | pest or weed control at 500 g/ha [2] [%] | pest or weed control at 125 g/ha [3] [%] | pest or weed control at 500 g/ha [3] [%] | pest or weed control at 125 g/ha (Kochia (Kochia scoparia) [4]) [%] | pest or weed control at 500 g/ha (Kochia (Kochia scoparia) [4]) [%] | pest or weed control at 125 g/ha [5] [%] | pest or weed control at 500 g/ha [5] [%] | pest or weed control at 125 g/ha [6] [%] | pest or weed control at 500 g/ha [6] [%] | pest or weed control at 125 g/ha [7] [%] | Corn plant response rating (crop injury, 0 = no effect, 100 = complete kill) at 125 g/ha (corn (Zea mays); 125 g ai/ha) [%] | pest or weed control at 125 g/ha [9, 15] [%] | plant injury at 125 g/ha [10, 16] [%] | pest or weed control at 125 g/ha (Kochia (Kochia scoparia) [11]; [17]) [%] | pest or weed control at 125 g/ha [12, 18] [%] | pest or weed control at 125 g/ha [13, 19] [%] | pest or weed control at 125 g/ha [14, 20] [%] | further results
1 | Cc1ccc([C@H]2CNC(=S)[C@@H]2C(=O)Nc2ccccc2F)cc1 (racemic) [Compound 945] | 60 | 90 | 0 | 70 | 0 | 0 | 0 | 0 | 0 | 0 | 0 | 0 | 0 | 0 | 0 | 0 | 0 | 0 | 0 | 20 | pest or weed control at 125 g/ha ([8]; Postemergence, visual injury after approximately 10 d, 0 to 100 scale where 0 is no effect and 100 is complete control, read-out: Plant response rating, Barnyardgrass): 80%
2 | CSc1ccccc1NC(=O)[C@H]1C(=O)NC[C@@H]1c1cc(F)cc(Cl)c1 [Compound 977] | 90 | 90 | 90 | 90 | 0 | 40 | 90 | 90 | 70 | 100 | 40 | 70 | 0 | 0 | 0 | 0 | 70 | 20 | 30 | 40 | 
3 | CN1C[C@H](c2cc(F)cc(Cl)c2)[C@@H](C(=O)Nc2ccccc2S(C)(=O)=O)C1=O [Compound 979] | 90 | 90 | 90 | 100 | 50 | 60 | 50 | 90 | 50 | 90 | 40 | 90 | 60 | 30 | 20 | 50 | 30 | 20 | 40 | 40 | 
4 | Cc1cc([C@H]2CNC(=O)[C@@H]2C(=O)Nc2ccccc2Cl)ccc1C(F)(F)F [Compound 1044] | 90 | 90 | 70 | 90 | 0 | 50 | 0 | 50 | 0 | 30 | 0 | 30 |  |  |  |  |  |  |  |  | plant injury at 125 g/ha (corn (Zea mays); 125 g ai/ha, postemergence, visual injury on 0 to 100 scale (0 no effect, 100 complete control), approx. 10 d, read-out: Corn plant response rating): 0%; Corn plant response rating (crop injury, 0 = no effect, 100 = complete kill) at 500 g/ha (corn (Zea mays); 500 g ai/ha, postemergence, visual injury, 0 to 100 scale (0 no effect, 100 complete control), approx. 10 d): 50%; pest or weed control at 125 g/ha ([8]; postemergence, visual injury on 0 to 100 scale (0 no effect, 100 complete control), approx. 10 d, read-out: Barnyardgrass plant response rating): 70%; pest or weed control at 500 g/ha ([8]; 500 g ai/ha, postemergence, visual injury, 0 to 100 scale (0 no effect, 100 complete control), approx. 10 d, read-out: Plant response rating, Barnyardgrass): 80%; pest or weed control at 125 g/ha ([9]; postemergence, visual injury on 0 to 100 scale (0 no effect, 100 complete control), approx. 10 d, read-out: Ryegrass, Italian plant response rating): 0%; plant injury at 125 g/ha ([10]; postemergence, visual injury on 0 to 100 scale (0 no effect, 100 complete control), approx. 10 d, read-out: Wheat plant response rating): 0%; pest or weed control at 125 g/ha (Kochia (Kochia scoparia) [11]; postemergence, visual injury on 0 to 100 scale (0 no effect, 100 complete control), approx. 10 d, read-out: Kochia plant response rating): 0%; pest or weed control at 500 g/ha (Kochia (Kochia scoparia) [11]; 500 g ai/ha, postemergence, visual injury, 0 to 100 scale (0 no effect, 100 complete control), approx. 10 d, read-out: Plant response rating, Kochia): 50%; pest or weed control at 125 g/ha ([12]; postemergence, visual injury on 0 to 100 scale (0 no effect, 100 complete control), approx. 10 d, read-out: Ragweed plant response rating): 20%; pest or weed control at 125 g/ha ([13]; postemergence, visual injury on 0 to 100 scale (0 no effect, 100 complete control), approx. 10 d, read-out: Pigweed plant response rating): 30%; pest or weed control at 125 g/ha ([14]; postemergence, visual injury on 0 to 100 scale (0 no effect, 100 complete control), approx. 10 d, read-out: Galium plant response rating): 40%; pest or weed control at 500 g/ha ([14]; 500 g ai/ha, postemergence, visual injury, 0 to 100 scale (0 no effect, 100 complete control), approx. 10 d, read-out: Plant response rating, Galium): 60%
